Usually IC50 stands for the concentration needed to halve the response being measured. What is called melting point is the temperature of the solid-liquid transition.

Read-outs that look alike come from different tables or passages of the source.

The text below walks through data of patent US7601734B2, “Cyclic amine compound” (Taisho Pharmaceutical Co., Ltd., priority 2004, dated 2009).

One series addresses T1, human α2C-adrenoceptor (Homo sapiens, UniProt P18825).
T1 construct: expressed in transfected cells; host or cells: COS-1 cells
T1 sequence (P18825 1-462): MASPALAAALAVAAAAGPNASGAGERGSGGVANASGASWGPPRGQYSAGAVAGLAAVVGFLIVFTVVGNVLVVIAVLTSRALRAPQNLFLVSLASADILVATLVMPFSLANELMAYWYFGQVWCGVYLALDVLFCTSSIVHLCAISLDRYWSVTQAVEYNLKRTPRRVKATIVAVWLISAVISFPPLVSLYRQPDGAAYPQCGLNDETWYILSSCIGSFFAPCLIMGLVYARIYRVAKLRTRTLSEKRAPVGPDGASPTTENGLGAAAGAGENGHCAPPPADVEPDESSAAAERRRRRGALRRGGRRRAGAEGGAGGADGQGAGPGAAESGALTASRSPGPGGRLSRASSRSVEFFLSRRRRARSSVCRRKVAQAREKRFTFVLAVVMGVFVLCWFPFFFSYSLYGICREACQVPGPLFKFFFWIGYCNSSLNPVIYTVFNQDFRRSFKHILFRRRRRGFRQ
The series can be described thus: α2C-Adrenoceptor binding experiment ([3H] MK912 displacement, crude membrane sample). The procedure:
The subject experiment was performed by a method improved from the method described in Uhlen et al., Journal of Pharmacology and Experimental Therapeutics (1994), 1558-1565. Briefly, human α2C-adrenoceptor expressing COS-1 cells were homogenized with 50 mM Tris-HCl buffer (pH 7.4) containing 12.5 mM magnesium hydrochloride and 1 mM EDTA. The resultant homogenate was centrifuged at 48,000×g for 20 minutes at 4° C. twice. The precipitate was suspended in 50 mM Tris-HCl buffer (pH 7.4) containing 12.5 mM magnesium hydrochloride and 1 mM EDTA to give a protein concentration of 150 μg/ml. This suspension was used in binding experiments as a crude membrane sample. The crude membrane sample (0.5 ml, 75 μg protein) was reacted with [^3H] MK912 (final concentration 0.08 nM) at 25° C. for 60 minutes. After completion of the reaction, the reaction mixture was vacuum filtered on GF/B glass fiber filter pre-immersed in 0.3% polyethyleneimine for 2 hours, using a cell harvester for binding experiments. The filter was placed in a glass vial containing 8 ml of Aquasol 2, and the radioactivity thereof was measured with a liquid scintillation counter. The amount of binding in the presence of 10 μM rauwolcine was taken as non-specific binding. The value obtained by subtracting non-specific binding from the total binding in the absence of 10 μM rauwolcine was taken as specific binding. Each of the test compounds was dissolved in 100% dimethyl sulfoxide solution and added to the membrane sample simultaneously with [^3H] MK912. IC50 values were calculated from inhibition curves at concentrations from 0.1 nM to 1 μM.

The target in the next series is T2, human α2A-adrenoceptor (Homo sapiens, UniProt P08913).
T2 construct: expressed in transfected cells; host or cells: COS-7 cells
T2 sequence (P08913 1-465): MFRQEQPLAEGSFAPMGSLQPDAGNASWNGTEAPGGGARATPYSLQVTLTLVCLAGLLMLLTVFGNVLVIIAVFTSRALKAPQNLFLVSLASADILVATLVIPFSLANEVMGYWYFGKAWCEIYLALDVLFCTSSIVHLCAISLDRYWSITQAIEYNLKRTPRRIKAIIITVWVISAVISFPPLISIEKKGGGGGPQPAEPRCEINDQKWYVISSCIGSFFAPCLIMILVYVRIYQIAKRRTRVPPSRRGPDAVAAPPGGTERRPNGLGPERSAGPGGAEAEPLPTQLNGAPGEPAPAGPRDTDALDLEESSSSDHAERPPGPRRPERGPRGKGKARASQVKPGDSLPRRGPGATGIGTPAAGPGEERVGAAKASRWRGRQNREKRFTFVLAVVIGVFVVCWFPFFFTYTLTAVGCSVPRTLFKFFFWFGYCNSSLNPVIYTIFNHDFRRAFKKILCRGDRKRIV
The series can be described thus: α2A-Adrenoceptor binding experiment ([3H] MK912 displacement, crude membrane sample). As to conditions: membranes of human α2A-adrenoceptor expressing COS-7 cells; [3H] MK912 1 nM; 25° C., 60 minutes; read-out: Ability to Inhibit (IC50, nM) α 2A. The procedure: The subject experiment was performed by a method improved from the method described in Uhlen et al., Journal of Pharmacology and Experimental Therapeutics (1994), 1558-1565. Briefly, human α2A-adrenoceptor expressing COS-7 cells were homogenized with 50 mM Tris-HCl buffer (pH 7.4) containing 12.5 mM magnesium hydrochloride and 1 mM EDTA. The resultant homogenate was centrifuged at 48,000×g for 20 minutes at 4° C. twice. The precipitate was suspended in 50 mM Tris-HCl buffer (pH 7.4) containing 12.5 mM magnesium hydrochloride and 1 mM EDTA to give a protein concentration of 200 μg/ml. This suspension was used in binding experiments as a crude membrane sample. The crude membrane sample (0.1 ml, 20 μg protein, reaction volume 0.2 ml) was reacted with [^3H] MK912 (final concentration 1 nM) at 25° C. for 60 minutes. After completion of the reaction, the reaction mixture was vacuum filtered on GF/C glass fiber plate pre-immersed in 0.3% polyethyleneimine for 2 hours, using a Filtermate Harvester. Microscinti-0 (40 μl) was added to the plate, and the radioactivity was measured with Top Count (PerkinElmer). The amount of binding in the presence of 10 μM rauwolcine was taken as non-specific binding. The value obtained by subtracting non-specific binding from the total binding in the absence of 10 μM rauwolcine was taken as specific binding. Each of the test compounds was dissolved in 100% DMSO solution and added to the membrane sample simultaneously with [^3H] MK912. IC50 values were calculated from inhibition curves at concentrations from 1 nM to 10 μM.

Where [1] appears, read: membranes of human α2C-adrenoceptor expressing COS-1 cells, [3H] MK912 0.08 nM, 25° C., 60 minutes, read-out: Ability to Inhibit (IC50, nM) α 2C.

For the compound `N#CC(CCCN1CCc2sc3ccccc3c2C1)(c1ccccc1)c1ccccc1` [Compound 7, 5-(3,4-dihydro-[1]-benzothieno[3,2-C]pyridine-2(1H)-yl)-2,2-diphenyl-pentanenitrile], the IC50 came to 299 nM at human α2C-adrenoceptor (setting [1]) and 1480 nM on human α2A-adrenoceptor.
The compound `Cl.N#CC(CCCN1CCc2oc3ccccc3c2C1)(c1ccc(F)cc1)c1ccc(F)cc1` [Compound 4, 5-(3,4-dihydro[1]benzofuro[3,2-c]pyridine-2(1H)-yl)-2,2-bis(4-fluorophenyl)pentanenitrile] returned a melting point of 113.5 to 120.5 °C. Further, the IC50 at human α2C-adrenoceptor (setting [1]) was found to be 9.3 nM. The 50% inhibitory concentration (IC50) on human α2A-adrenoceptor came out at 136 nM.
For `Cl.NC(=O)C(CCCN1CCc2oc3ccccc3c2C1)(c1ccc(F)cc1)c1ccc(F)cc1` [Compound 3, 5-(3,4-dihydro[1]benzofuro[3,2-c]pyridine-2(1H)-yl)-2,2-bis(4-fluorophenyl)pentanoic acid amide] the same measures were 174 to 179.5 °C, 5.8 nM and 204 nM.
Take `O=C(O)C(CCCN1CCc2oc3ccccc3c2C1)(c1ccc(F)cc1)c1ccc(F)cc1` [Compound 2, 5-(3,4-dihydro[1]benzofuro[3,2-c]pyridine-2(1H)-yl)-2,2-bis(4-fluorophenyl)pentanoic acid]: the half-maximal inhibitory concentration (IC50) at human α2C-adrenoceptor (setting [1]) was 142 nM; at human α2A-adrenoceptor, 935 nM.
For `N#CC1(CCCN2CCc3oc4ccccc4c3C2)c2ccccc2Oc2ccccc21` [Compound 16, 9-[3-(3,4-dihydro-[1]-benzofuro[3,2-C]pyridine-2(1H)-yl)-propyl]-9H-xanthene-carbonitrile] the same measures were 12 nM and 102 nM.
`N#CC(CCCN1CCc2oc3ccc(F)cc3c2C1)(c1ccccc1)c1ccccc1` [Compound 10, 5-(8-fluoro-3,4-dihydro-[1]-benzofuro[3,2-C]pyridine-2(1H)-yl)-2,2-diphenyl-pentanenitrile]: the half-inhibitory concentration (IC50) at human α2C-adrenoceptor came out at 28 nM; on human α2A-adrenoceptor, 504 nM.
For the compound `N#CC(CCCN1CCc2oc3ccc(Cl)cc3c2C1)(c1ccccc1)c1ccccc1` [Compound 11, 5-(8-chloro-3,4-dihydro-[1]-benzofuro[3,2-C]pyridine-2(1H)-yl)-2,2-diphenyl-pentanenitrile], the concentration for half-maximal inhibition (IC50) on human α2C-adrenoceptor (setting [1]) stood at 203 nM; on human α2A-adrenoceptor, 1720 nM.
On to `N#CC(CCCN1CCc2[nH]c3ccccc3c2C1)(c1ccccc1)c1ccccc1` [Compound 8, 2,2-diphenyl-5-(1,3,4,5-tetrahydro-2H-pyrido[4,3-b]indole-2-yl)-pentanenitrile], for which the values for the IC50 at human α2C-adrenoceptor (setting [1]) and on human α2A-adrenoceptor were 121 nM and 1290 nM, respectively.
For `Cn1c2c(c3ccccc31)CN(CCCC(C#N)(c1ccccc1)c1ccccc1)CC2` [Compound 9, 5-(5-methyl-1,3,4,5-tetrahydro-2H-pyrido[4,3-b]indole-2-yl)-2,2-diphenyl-pentanenitrile], the 50% inhibitory concentration (IC50) at human α2C-adrenoceptor (setting [1]) was determined as 280 nM; on human α2A-adrenoceptor it was 4830 nM.
With `COC(=O)C(CCCN1CCc2oc3ccccc3c2C1)(c1ccc(F)cc1)c1ccc(F)cc1` [Compound 1, Methyl 5-(3,4-dihydro[1]benzofuro[3,2-c]pyridine-2(1H)-yl)-2,2-bis(4-fluorophenyl)pentanoate], the figures for the IC50 at human α2C-adrenoceptor (setting [1]) and on human α2A-adrenoceptor were 28 nM and 416 nM, respectively.
`Cl.N#CC(CCCN1CCc2oc3ccccc3c2C1)(c1ccccc1)c1ccccc1` [Compound 5, 5-(3,4-dihydro[1]benzofuro[3,2-c]pyridine-2(1H)-yl)-2,2-diphenylpentanenitrile] came in with a melting point of 195 to 199 °C. Also, the IC50 on human α2C-adrenoceptor (setting [1]) stood at 5.7 nM. The half-maximal inhibitory concentration (IC50) at human α2A-adrenoceptor was determined as 139 nM.
Turning to `c1ccc(C(CCCN2CCc3oc4ccccc4c3C2)c2ccccc2)cc1` [Compound 15, 2-(4,4-diphenylbutyl)-1,2,3,4-tetrahydro-[1]-benzofuro[3,2-C]pyridine], the IC50 at human α2C-adrenoceptor (setting [1]) amounted to 10 nM; on human α2A-adrenoceptor it was 243 nM.
In the case of `COc1ccc2oc3c(c2c1)CN(CCCC(C#N)(c1ccccc1)c1ccccc1)CC3` [Compound 13, 5-(8-methoxy-3,4-dihydro-[1]-benzofuro[3,2-C]pyridine-2(1H)-yl)-2,2-diphenyl-pentanenitrile], the IC50 at human α2C-adrenoceptor (setting [1]) worked out at 53 nM; on human α2A-adrenoceptor, 563 nM.
